Where two headings read alike, the source gives them in different places.
How the values were obtained:
[1] = tested on: rat cortical neurons; test: Caspase 3/7 activation assay, OGD-induced neurotoxicity in rat cortical neurons; format: cell-based; conditions: for OGD induced caspase 3/7 activation / neuroprotection: 100 μg/ml, 1 h incubation eighteen hours prior to OGD, FIG. 7
Procedure: The effect of the rotomer complexes of Examples 1, 2, 3 and 9 on neurotoxicity induced by oxygen glucose deprivation (OGD) was tested in a caspase 3/7 activation assay. The assay was applied to freshly isolated rat cortical neurons cultured in 96-well-plates and exposed to the compounds at 100 μg/ml.
In vitro ischemic injury was induced in rat primary neuronal culture by oxygen-glucose deprivation for 2 hours. Neurons were incubated with the compounds for 1 hour eighteen hours prior to the OGD induction. Dizocilpine (MK801) 10 μM was used as positive neuroprotection control. After treatments, incubated with three optically compatible fluorescent dyes, and subsequently analyzed with BD Pathway 855 (Becton Dickinson). Cell parameters associated with caspase 3/7 activation—indicative of pre-lethal cytotoxic effects—were measured by high content screening at single cell level.
Primary cultures of cortical neurons were isolated from cerebral cortices of Sprague-Dawley rat fetuses at embryonic day 18. Brains were removed and after removing the meninges, the tissues were dissected under a binocular microscope. Neurons were enzymatically dispersed by trypsin 0.2% and DNAse […] digestion for 10 min at 37° C. plated in poly-L-lysine wells and incubated with B27 supplemented neurobasal medium.
Cortical neurons of 18 days old embryonic rats were plated in poly-1-lysine coated 96-well plates (30,000 cells per well). Cells were maintained in neurobasal medium supplemented with B-27 component: for 5 days at 37° C. in a humidified 5% CO2 atmosphere. At day 5, cells were subjected to oxygen glucose deprivation (OGD) for 2 hours at 37° C. The cultures were placed in an […] chamber (Billops-Rothenberg) and incubated in neurobasal medium lacking glucose and B27 factor and aerated with an anaerobic gas mixture (94.7% N2. 5% CO2, 0.3% O2) to remove residual oxygen. Control cultures were kept in the original neurobasal medium but were submitted to the anaerobic conditions. At the end of the OGD conditions, the cells were removed from the anaerobic chamber, the OGD medium was replaced with neurobasal medium containing glucose, and the cells were incubated for an additional 24 h. The test compounds were added to the neurons eighteen hours prior to the OGD induction and maintained for 1 h. Replicate cultures were treated as described above with dizocilpine (MK801) as positive control of neuroprotection. The neuroprotective potential of the four rotomer complexes was determined by a caspase 3/7 activation assay.
(§1) Caspase 3/7 activation was determined using The CellEvent® Caspase-3/7 Green Detection Reagent which is intrinsically a non-fluorescent peptide that inhibits the ability of the dye to bind to DNA. However, after caspase-3/7 activation in apoptotic cells, the peptide is cleaved allowing the dye to bind to DNA producing a bright, fluorogenic response. Cell were stained with 5 μM reagent, washed 3 times and measured at 488 nm/530 nm Ex/Em. This dye permits the direct quantification of apoptotic cells.

[2] = tested on: HGEPp cells; test: ROS production in H2O2-induced oxidatively stressed HGEPp cells; format: cell-based, human; conditions: HGEPp cells pretreated 24 hrs at 100 μg/mL prior to 0.3 mM H2O2 for 4 h; positive control 139%
Procedure: That same assay was carried out on the rotomer compositions prepared in Examples 1-11 above to determine their effect on protecting primary human gingival epithelial cells (HGEPp) cells from oxidative damage induced by hydrogen peroxide (H2O2).

[3] = tested on: mouse neonatal primary cardiomyocyte; conditions: 100 μg/ml, 4 hours prior to OGD, during 18 h OGD and 24 h recovery; FIG. 9
Procedure: as §1

[4] = tested on: GSTP1; test: Human oxidative stress RT2 Profiler PCR array in HGEPp cells: GSTP1; format: cell-based; conditions: HGEPp cells pretreated 24 h at 100 μg/ml; ΔΔCt
Procedure: (§2) RT-PCR was performed on an iCycler.

[5] = tested on: GCLM; test: Human oxidative stress RT2 Profiler PCR array in HGEPp cells: GCLM; format: cell-based; conditions: HGEPp cells pretreated 24 h at 100 μg/ml; ΔΔCt
Procedure: as §2

[6] = tested on: GPX4; test: Human oxidative stress RT2 Profiler PCR array in HGEPp cells: GPX4; conditions: HGEPp cells pretreated 24 h at 100 μg/ml; ΔΔCt
Procedure: (§3) Pooled primary HGEPp cells were propagated in CnT-Prime epithelial culture medium provided by CellnTec on 100 mm petri dishes coated with 30 mg/ml Type I rat tail collagen (BD Biosciences) diluted in Duibecco's phosphate-buffered saline (DPBS). HGEPp cells were grown in 12×60 mm Nunc™ Cell Culture dishes at a 2.5×10^4 cells/cm2 density concentration.
(§4) All dosing solutions contained 0.3% of DMSO which is well below the maximum tolerated DMSO percent of 0.8% for HGEPp cells.
(§5) The RN-easy UCP Micro Kit was used to purify mRNA from the HGEPp cells.
(§6) The assay was reliably used to analyze expression levels of 84 genes related to oxidative stress in HGEPp cells pre-treated with ST-617-APT, ST-617-DPT and the rotomeric complexes at 100 μg/ml for 24 h. The cDNA from above was mixed with the RT2 SYBR Green fluor Mastermix and aliquoted into the wells of the RT2 Profiler PCR Array. RT-PCR was performed on an iCycler. Gene expression was compared using et values and the results were calculated using ΔΔ Ct method with normalization to the average expression levels of the five common genes (ACTB, B2M, GAPDH, HPRT, and RPL13A).

[7] = tested on: GCLC; test: Human oxidative stress RT2 Profiler PCR array in HGEPp cells: GCLC; format: cell-based; conditions: HGEPp cells pretreated 24 h at 100 μg/ml; ΔΔCt
Procedure: as §2

[8] = tested on: PRDX2; test: Human oxidative stress RT2 Profiler PCR array in HGEPp cells: PRDX2; conditions: HGEPp cells pretreated 24 h at 100 μg/ml; ΔΔCt
Procedure: as §3, §4, §5, §6

[9] = tested on: GPX1; test: Human oxidative stress RT2 Profiler PCR array in HGEPp cells: GPX1; format: cell-based; conditions: HGEPp cells pretreated 24 h at 100 μg/ml; ΔΔCt
Procedure: as §2

[10] = tested on: NQO1; test: Human oxidative stress RT2 Profiler PCR array in HGEPp cells: NQO1; format: cell-based; conditions: HGEPp cells pretreated 24 h at 100 μg/ml; ΔΔCt
Procedure: as §2

[11] = tested on: ALOX12; test: Human oxidative stress RT2 Profiler PCR array in HGEPp cells: ALOX12; format: cell-based; conditions: HGEPp cells pretreated 24 h at 100 μg/ml; ΔΔCt
Procedure: as §2

[12] = tested on: GTF2i; test: Human oxidative stress RT2 Profiler PCR array in HGEPp cells: GTF2i; format: cell-based; conditions: HGEPp cells pretreated 24 h at 100 μg/ml; ΔΔCt
Procedure: as §2

[13] = tested on: MPO; test: Human oxidative stress RT2 Profiler PCR array in HGEPp cells: MPO; conditions: HGEPp cells pretreated 24 h at 100 μg/ml; ΔΔCt
Procedure: as §3, §4, §5, §6

[14] = tested on: PTGS1; test: Human oxidative stress RT2 Profiler PCR array in HGEPp cells: PTGS1; format: cell-based; conditions: HGEPp cells pretreated 24 h at 100 μg/ml; ΔΔCt
Procedure: as §2

[15] = tested on: SOD1; test: Human oxidative stress RT2 Profiler PCR array in HGEPp cells: SOD1; format: cell-based; conditions: HGEPp cells pretreated 24 h at 100 μg/ml; ΔΔCt
Procedure: as §2

[16] = tested on: UCP2; test: Human oxidative stress RT2 Profiler PCR array in HGEPp cells: UCP2; format: cell-based; conditions: HGEPp cells pretreated 24 h at 100 μg/ml; ΔΔCt
Procedure: as §2

[17] = tested on: oxidative stress-related genes in HGEPp cells; test: Human oxidative stress RT2 Profiler PCR array in HGEPp cells: statements over several genes; conditions: for SOD1, NQ01, GCLC, GSTP1 and GCLM; 100 μg/ml, 24 h
Procedure: as §3, §4, §5, §6

[18] = tested on: HGEPp cells; conditions: 100 μg/mL pretreatment; taken from PCT/IB2017/001312; cited from earlier work

Row | Molecule | OGD induced caspase 3/7 activation [1] | neuroprotection [1] | ROS level relative to Normal (100%, optical density baseline) [2] [%] | cardioprotection [3] | GSTP1 up regulation relative fold change [4] [fold] | GCLM up regulation relative fold change [5] [fold] | GPX4 up regulation relative fold change [6] [fold] | GCLC up regulation relative fold change [7] [fold] | PRDX2 down regulation relative fold change [8] [fold] | GPX1 up regulation relative fold change [9] [fold] | NQO1 up regulation relative fold change [10] [fold] | ALOX12 up regulation relative fold change [11] [fold] | GTF2i down regulation relative fold change [12] [fold] | MPO up regulation relative fold change [13] [fold] | PTGS1 down regulation relative fold change [14] [fold] | SOD1 up regulation relative fold change [15] [fold] | UCP2 down regulation relative fold change [16] [fold] | up-regulation compared to ST-617-DPI and ST-617-DPI [17] | prevention of OGD-induced apoptosis based on caspase activation ([1]; 10 μM, OGD 2 hours, measured 24 h after exposure) [%] | ROS level relative to Normal (100%, optical density baseline) [18] [%]
1 | Cc1c(-c2cnccn2)ssc1=S.Cl [Example 1, hydrochloride complex of oltipraz] | significantly reduced | high degree of neuroprotection | 128 | significant degree of cardioprotection |  |  |  |  |  |  |  |  |  |  |  |  |  |  |  | 
2 | Cc1c(-c2cncc[n+]2OC2=CC(=O)OC2=O)ssc1=S [Example 2, hydroxymaleate anhydride complex of oltipraz] | significantly reduced | high degree of neuroprotection | 116 | significant degree of cardioprotection |  |  |  |  |  |  |  |  |  |  |  |  |  |  |  | 
3 | CC(=O)[n+]1ccncc1-c1ssc(=S)c1C.[Cl-] [Example 3, acetyl chloride complex of oltipraz] | significantly reduced | high degree of neuroprotection | 129 | significant degree of cardioprotection | 2.87 | 2.38 | 2.83 | 3.27 | 0.33 | 4.76 | 3.36 | 6.33 | 0.32 | 3.10 | 0.29 | 4.24 | 0.26 |  |  | 
4 | CCCC[n+]1ccncc1-c1ssc(=S)c1C.[Cl-] [Example 4, n-butyl chloride complex of oltipraz] |  |  | 128 |  | 2.88 | 2.38 | 2.96 | 3.35 | 0.32 | 4.80 | 3.34 | 5.82 | 0.35 | 3.20 | 0.27 | 4.15 | 0.25 |  |  | 
5 | Cc1c(-c2cncc[n+]2C)ssc1=S.[I-] [Example 5, methyl iodide complex of oltipraz] |  |  | 134 |  | 2.90 | 2.27 | 2.85 | 3.38 | 0.32 | 4.98 | 3.15 | 6.04 | 0.33 | 3.18 | 0.28 | 3.89 | 0.29 |  |  | 
6 | Cc1c(-c2cncc[n+]2C(=O)c2ccccc2)ssc1=S.[Cl-] [Example 6, benzoyl chloride complex of oltipraz] |  |  | 131 |  | 2.74 | 2.25 | 2.91 | 3.31 | 0.31 | 4.43 | 3.17 | 5.93 | 0.36 | 3.05 | 0.28 | 3.92 | 0.28 |  |  | 
7 | COP(=O)([O-])OC.Cc1c(-c2c[n+](C)ccn2)ssc1=S [Example 9, dimethyl phosphate complex of N-methyl oltipraz] | significantly reduced | high degree of neuroprotection | 112 | significant degree of cardioprotection | 3.16 | 3.15 | 2.93 | 4.60 | 0.27 | 4.89 | 4.24 | 6.43 | 0.28 | 3.41 | 0.21 | 5.22 | 0.15 | significantly higher up-regulation |  | 
8 | Cc1c(-c2cnccn2)ssc1=S.O=S(=O)(O)CCO [Example 10, isethionic acid complex of oltipraz] |  |  | 113 |  |  |  |  |  |  |  |  |  |  |  |  |  |  | significantly higher up-regulation |  | 
9 | C[C@]12N[C@H](Cc3ccccc31)c1ccccc12 [MK801, Dizocilpine, reference compound] |  |  |  |  |  |  |  |  |  |  |  |  |  |  |  |  |  |  | 28 | 
10 | Cc1c(-c2cnccn2)ssc1=S [ST-617-API, 4-methyl-5-(pyrazin-2-yl)-3H-1,2-dithiole-3-thione, reference compound] |  |  |  |  |  |  |  |  |  |  |  |  |  |  | 6.22 |  |  |  |  | 124
11 | thiobenzoic acid complex of oltipraz [Example 11] |  |  | 116 |  |  |  |  |  |  |  |  |  |  |  |  |  |  |  |  | 
